The source made the active and inactive calls.
Legend:
Assay type in all cases: functional, organism-based
Escherichia coli [1] = experiment: Antibacterial activity against Escherichia coli K125 HER 1037 after 24 hrs
Staphylococcus aureus = experiment: Antibacterial activity against Staphylococcus aureus B827 after 24 hrs
Klebsiella pneumoniae = experiment: Antibacterial activity against Klebsiella pneumoniae C3 HER 1111 after 24 hrs
Pseudomonas aeruginosa = experiment: Antibacterial activity against Pseudomonas aeruginosa PAO1 HER 1018 after 24 hrs
Escherichia coli [2] = experiment: Antibacterial activity against Escherichia coli 11303 HER 1024 after 24 hrs
Shigella sonnei = experiment: Antibacterial activity against Shigella sonnei YER HER 1048 after 24 hrs

Measured: Activity

C[C@@H]1N[C@H](CCCCCCCCCCc2cc(CCCCCCCCC[C@@H]3CC[C@H](O)[C@H](C)N3)c[n+]3c2C=CC3)CC[C@@H]1O
active: Escherichia coli [1] | Staphylococcus aureus | Klebsiella pneumoniae | Pseudomonas aeruginosa | Escherichia coli [2] | Shigella sonnei

Reference: ChEMBL document CHEMBL1147284, “Alkaloids from the Leaves of Prosopis juliflora” (J Nat Prod, 1989)
